Data: patent US20250283058A1, “USE OF p55-GAMMA GENE AND/OR p55-GAMMA PROTEIN AS TARGET IN MAINTAINING CARDIAC IRON HOMEOSTASIS AND TREATING RELATED DISEASE” (BEIJING FRIENDSHIP HOSPITAL, CAPITAL MEDICAL UNIVERSITY, priority 2024, published 2025)
Where a SMILES comes first, the peptide text is derived from it. The star is where a group is joined. Cbz = O=C(OCc1ccccc1)*

What was measured:
p55γ gene = p55γ gene mRNA and protein levels in cardiomyocytes treated with ferroptosis inducers (qPCR, Western blot); type: cell-based; details: NRVMs treated with ferroptosis inducer vs vehicle group
Procedure: The cultured cardiomyocytes were divided into: an erastin group and a vehicle group, where the NRVMs were treated with erastin in the erastin group, while the cardiomyocytes in the vehicle group were not treated in any way. The mRNA and protein levels of p55γ gene in the two groups of cardiomyocytes were detected by conventional quantitative polymerase chain reaction (qPCR) and Western blot methods.
The mRNA and protein levels of p55γ gene in the two groups of cardiomyocytes were detected by conventional qPCR and Western blot methods.

[1] = tested on: I/R injury-induced cardiac ferroptosis; assay: I/R injury model in mice with ferroptosis inhibitors (TTC staining, serum LDH, MDA); type: in vivo; details: for cardiac MDA content / serum LDH concentration: mice after I/R injury; for cardiac MDA content: compared with WT mice; for serum LDH concentration / I/R-induced myocardial infarct size: effect comparable to p55γ^h-TG mice; for I/R-induced myocardial infarct size: mice, TTC staining
Procedure: p55γ transgenic (p55γ^h-TG) mice were established according to routine methods in the art. Male wild-type (WT) C57 mice and p55γ^h-TG mice aged 8 to 12 weeks were selected to set up a sham operation control group and experimental groups, respectively, to construct I/R injury models. TTC staining, MDA detection, and oxidized lipid detection were conducted according to conventional methods in the art. To determine whether p55γ protein could inhibit I/R injury-induced cardiac ferroptosis, the experiments were carried out with the following groups: mice treated with saline, mice treated with Ferrostatin-1 (Fer-1) and Dexrazoxane (DXZ), and p55γ^h-TG mice. The cardiac infarction area of mice was detected by conventional TTC staining and the serum LDH concentration was assayed by LDH release kits. […] In addition, lipid peroxidation in the hearts of mice in each group was detected by intracellular MDA content assay. […] Given that the peroxidation of polyunsaturated fatty acids (PUFAs) is an important step in ferroptosis, and in order to further clarify the role of p55γ gene in ferroptosis, oxidized lipid substances in the hearts of mice from the […] group and WT-I/R group were measured using liquid chromatography-tandem mass spectrometry (LC-MS/MS).

IRP2 = IRP2 mRNA and protein levels in cardiomyocytes (qPCR, Western blot); type: cell-based; details: Ad-p55γ-infected cardiomyocytes treated with MG132
Procedure: To elucidate whether the p55γ gene could regulate the mRNA stability of Tfr1through the IRPs-IRE system, the expression of IRP2 in NRVMs was evaluated. Ad-p55γ was used to infect cardiomyocytes, and qPCR and Western blot were conducted to detect Ad-p55γ-infected cardiomyocytes for 48 h.
Ad-p55γ-infected cardiomyocytes were treated with MG132. […] In order to further study whether p55γ could promote the ubiquitination and degradation of IRP2, the target gene sequences of p55γ, IRP2, and UB were found in NCBI. A pcDNA3.1(+) vector was used, sequence analysis software was used to find the restriction endonuclease cleavage sites present in the target gene sequences, and plasmids for p55γ, IRP2, and […] were constructed. The plasmids were separately transfected into HEK293T cells, which were collected 24 h later and IRP2 ubiquitination was detected. Western blot was conducted to detect the ubiquitination level of IRP2.

Tfr1 and IRP2 = assay: Western blot of Tfr1 and IRP2 after perhexiline treatment of cardiomyocytes; type: cell-based; details: 24 h treatment
Procedure: (§1) In view of the importance of p55γ in combating ferroptosis, it is particularly important to find potential activators of p55γ for the treatment of I/R injury. Therefore, potential activators of p55γ were predicted using existing small molecule drug libraries. Subsequently, molecular docking analysis was conducted based on the crystal structure of p55γ. […] To determine the potential role of perhexiline in cardiomyocyte ferroptosis, experiments were first done in cardiomyocytes. […] The effect of perhexiline was further tested in the context of H/R injury model.

cardiomyocytes (NRVMs) = assay: H/R injury model in cardiomyocytes with perhexiline; type: cell-based
Procedure: as §1

[2] = tested on: I/R injury-induced cardiac ferroptosis; assay: I/R injury model in mice pretreated with perhexiline (TTC staining, MDA); type: in vivo; details: intraperitoneal injection 24 h and 2 h before I/R
Procedure: p55γ knockout (p55γ^−/−) mice were established according to routine methods in the art. Male wild-type (WT) C57 mice and p55γ^−/− mice aged 8 to 12 weeks were selected to set up a sham operation control group and experimental groups, respectively, and the mice were intraperitoneally injected with perhexiline 24 h and 2 h before constructing the I/R injury model. TTC staining and MDA detection were conducted according to conventional methods in the art.

[3] = cardiomyocytes, H/R injury model
[4] = with overexpression of IRP2 (IRP2 adenovirus)

## COC(=O)c1ccc([C@@H]2c3[nH]c4ccccc4c3C[C@@H](C(=O)OC)N2C(=O)CCl)cc1 [RSL3]
p55γ gene; Western blot
  protein level of p55γ gene: down-regulated
p55γ gene; qPCR
  mRNA level of p55γ gene: down-regulated

## C[C@@H](CN1CC(=O)NC(=O)C1)N1CC(=O)NC(=O)C1 [DXZ, Dexrazoxane]
[1]
  cardiac MDA content: significantly reduced
  serum LDH concentration: reduced
  I/R-induced myocardial infarct size: reduced

## CC(C)C[C@@H](C=O)NC(=O)[C@H](CC(C)C)NC(=O)[C@H](CC(C)C)NC(=O)OCc1ccccc1 [MG132] (Cbz-Leu-Leu-Leu-aldehyde)
IRP2
  p55γ-mediated decrease in IRP2 protein: effectively eliminated

## C1CCC(C(CC2CCCCN2)C2CCCCC2)CC1 (stereo not shown) [perhexiline]
Tfr1 and IRP2
  protein level of IRP2: significantly down-regulated
  protein level of Tfr1: significantly down-regulated
Cardiomyocytes (NRVMs); [3]
  decrease in cell activity induced by H/R injury: significantly blocked
  increase in ptgs2 mRNA levels induced by H/R injury: significantly blocked
Cardiomyocytes (NRVMs); [4]
  inhibitory effect on H/R induced decrease in cell activity: could block the inhibitory effect
  inhibitory effect on H/R induced increase in ptgs2 mRNA levels: could block the inhibitory effect
[2]; WT mice
  level of MDA in the heart: reduce
[2]; WT mice, TTC staining
  myocardial infarct size: significantly reduce
[2]; p55γ^−/− mice
  cardioprotective effect (level of MDA in the heart): abolished
  cardioprotective effect (myocardial infarct size): abolished

## CCOC(=O)c1ccc(NC2CCCCC2)c(N)c1 [Fer-1, Ferrostatin-1]
[1]
  cardiac MDA content: significantly reduced
  serum LDH concentration: reduced
  I/R-induced myocardial infarct size: reduced
